Source: ChEMBL document CHEMBL3046682, “Synthesis of lactosylated piperazinyl porphyrins and their hepatocyte-selective targeting” (Med Chem Res, 2007)
In brackets after ≈: the same amount, converted by molar mass.

Legend:
Zone of skin = assay: Biodistribution in tumor-bearing Mus musculus KM (mouse) skin at 10 mg/kg, ip after 3 to 24 hr by fluorescence assay; type: ADME, organism-based; design: dose 10 mg/kg, route intraperitoneal; conditions: in vivo
Liver [1] = assay: Biodistribution in tumor-bearing Mus musculus KM (mouse) liver at 10 mg/kg, ip after 144 hr by fluorescence assay; type: ADME, organism-based; design: dose 10 mg/kg, route intraperitoneal; conditions: in vivo
Liver [2] = assay: Biodistribution in tumor-bearing Mus musculus KM (mouse) liver at 10 mg/kg, ip after 3 to 24 hr by fluorescence assay; type: ADME, organism-based; design: dose 10 mg/kg, route intraperitoneal; conditions: in vivo
[3] = Photocytotoxicity against Homo sapiens (human) Bel7404 cells assessed as cell death at 6.25 ug/ml after 18 hr by MTT assay in presence of light; type: functional, BEL-7404
[4] = Cytotoxicity against Homo sapiens (human) Bel7404 cells assessed as cell death at 6.25 ug/ml after 18 hr by MTT assay in absence of light; type: functional, BEL-7404
[5] = Cytotoxicity against Homo sapiens (human) MCG cells assessed as cell death at 6.25 ug/ml after 18 hr by MTT assay in absence of light; type: functional
[6] = Cytotoxicity against Homo sapiens (human) HNE1 cells assessed as cell death after 48 hr by MTT assay in absence of light; type: functional; conditions: HNE1, 48 h, read-out: ID50 (the source's name)
[7] = Photocytotoxicity against Homo sapiens (human) HNE1 cells assessed as cell death at 6.25 ug/ml after 18 hr by MTT assay in presence of light; type: functional
[8] = Cytotoxicity against Homo sapiens (human) HNE1 cells assessed as cell death at 6.25 ug/ml after 18 hr by MTT assay in absence of light; type: functional
[9] = Cytotoxicity against Homo sapiens (human) Bel7404 cells assessed as cell death after 48 hr by MTT assay in absence of light; type: functional; conditions: BEL-7404, 48 h, read-out: ID50 (the source's name)
[10] = Cytotoxicity against Homo sapiens (human) MCG cells assessed as cell death after 48 hr by MTT assay in absence of light; type: functional; conditions: read-out: ID50 (the source's name)
[11] = Photocytotoxicity against Homo sapiens (human) MCG cells assessed as cell death at 6.25 ug/ml after 18 hr by MTT assay in presence of light; type: functional
[12] = Solubility of the compound in water; type: physicochemical; conditions: buffer

Drug uptake (Zone of skin)	Drug uptake (Liver [1])	Drug uptake (Liver [2])	solubility [12]	Compound	Activity [3] [%]	Activity [4] [%]	Activity [5] [%]	IC50 [6] [µg/mL]	Activity [7] [%]	Activity [8] [%]	IC50 [9] [µg/mL]	IC50 [10] [µg/mL]	Activity [11] [%]
Not Active	Not Active	Active		O=C([C@H](O)[C@@H](O)[C@H](O[C@@H]1O[C@H](CO)[C@H](O)[C@H](O)[C@H]1O)[C@H](O)CO)N1CCN(c2ccc(-c3c4nc(c(-c5ccc(N6CCN(C(=O)[C@H](O)[C@@H](O)[C@H](O[C@@H]7O[C@H](CO)[C@H](O)[C@H](O)[C@H]7O)[C@H](O)CO)CC6)cc5)c5ccc([nH]5)c(-c5ccc(N6CCN(C(=O)[C@H](O)[C@@H](O)[C@H](O[C@@H]7O[C@H](CO)[C@H](O)[C@H](O)[C@H]7O)[C@H](O)CO)CC6)cc5)c5nc(c(-c6ccc(N7CCN(C(=O)[C@H](O)[C@@H](O)[C@H](O[C@@H]8O[C@H](CO)[C@H](O)[C@H](O)[C@H]8O)[C@H](O)CO)CC7)cc6)c6ccc3[nH]6)C=C5)C=C4)cc2)CC1									
				O=C([C@H](O)[C@@H](O)[C@H](O[C@@H]1O[C@H](CO)[C@H](O)[C@H](O)[C@H]1O)[C@H](O)CO)N1CCN(c2ccc(-c3c4nc(c(-c5ccccc5)c5ccc([nH]5)c(-c5ccccc5)c5nc(c(-c6ccccc6)c6ccc3[nH]6)C=C5)C=C4)cc2)CC1	75	8	8	46 (≈ 44.3 µM)	75	8	43 (≈ 41.4 µM)	48 (≈ 46.2 µM)	75
			Insoluble	C1=Cc2nc1c(-c1ccccc1)c1nc(c(-c3ccccc3)c3ccc([nH]3)c(-c3ccccc3)c3ccc([nH]3)c2-c2ccccc2)C=C1 [TETRAPHENYLPORPHYRIN]				> 50			> 50	> 50	
